From patent publication US11512053B2, “Arginine methyltransferase inhibitors and uses thereof” (priority 2013, dated 2022)

Biological target: full-length human PRMT6 (Flag- and His-tagged) (Homo sapiens, UniProt Q96LA8)
Assay: PRMT6 Biochemical Assay (3H-SAM Flashplate, peptide substrate)
Settings: single experiment or average of multiple experiments; read-out: Biochemical IC50 PRMT6
In short: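 Radiometric methyltransferase readout: tritium transfer onto a biotin-tagged histone H4 36-50 peptide bearing monomethyl K44 (75 nM), captured on streptavidin Flashplates after stopping with 400 uM unlabeled SAM. Enzyme is baculovirus-expressed Flag-PRMT6-His at 1 nM, given 30 min with compound at room temperature before adding 200 nM 3H-SAM and 250 nM cold SAM (pH 7.6 Bicine, 2% DMSO). Percent inhibition relative to max/min (1 mM SAH) controls, curve-fit to IC50.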

Chain of full-length human PRMT6 (Flag- and His-tagged) (Q96LA8 with tags, fused parts or gaps): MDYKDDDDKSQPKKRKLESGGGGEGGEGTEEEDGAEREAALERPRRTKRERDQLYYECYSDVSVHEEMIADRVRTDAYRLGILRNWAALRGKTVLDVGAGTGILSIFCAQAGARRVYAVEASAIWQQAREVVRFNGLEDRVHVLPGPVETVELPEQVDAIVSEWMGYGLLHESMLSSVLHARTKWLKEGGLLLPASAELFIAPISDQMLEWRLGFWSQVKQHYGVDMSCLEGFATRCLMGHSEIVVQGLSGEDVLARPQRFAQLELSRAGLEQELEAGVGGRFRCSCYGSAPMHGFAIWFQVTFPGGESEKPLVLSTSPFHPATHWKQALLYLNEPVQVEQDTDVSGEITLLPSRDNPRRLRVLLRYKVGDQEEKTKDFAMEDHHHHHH

IC50: 20 nM
SMILES: CNCCN(C)Cc1c[nH]nc1C#Cc1ccccc1 [Compound 3]
